Results as given in patent publication US7192746B2, “α-Isomaltosyltransferase, process for producing the same and use thereof” (Kabushiki Kaisha Hayashibara Seibutsu Kagaku Kenkyujo, priority 2000, dated 2007).

Tests used:
Experiment in all cases: Specificity to transferring acceptor
Format in all cases: biochemical
Parameters in all cases: key: −: no saccharide transferred product was formed; ±: a saccharide-transferred product formed in an amount of less than one percent to the total sugars; +: a saccharide-transferred product was formed in an amount of over one percent but below 10% to the total sugars; ++: a saccharide-transferred product was formed in an amount of over 10% to the total sugars
[1] = tested on: α-isomaltosyl-transferring enzyme from Bacillus globisporus N75; conditions: panose as saccharide donor, 10 units/g substrate, 3.2% (w/v), 30° C., pH 6.0, 24 hours
Description: (§1) Saccharides were tested as follows to examine whether they can be used as transferring acceptors for the α-isomaltosyl-transferring enzyme of the present invention. A solution of D-glucose, D-xylose, L-xylose, D-galactose, D-fructose, D-mannose, D-arabinose, D-fucose, L-sorbose, L-rhamnose, methyl-α-glucoside (or methyl-α-glucopyranoside), methyl-β-glucoside (or methyl-β-glucopyranoside), N-acetyl-D-glucosamine, D-ribose, L-ribose, D-psicose, sorbitol, xylitol, mannitol, arabitol, ribitol, erythritol, maltose, maltotriose, maltotetraose, maltopentaose, isomaltose, isomaltotriose, α,α-trehalose, α,β-trehalose, kojibiose, nigerose, cellobiose, gentibiose, isopanose, maltitol, maltotriitol, lactose, sucrose, erlose, isomaltosylglucoside, α-cyclodextrin, β-cyclodextrin, γ-cyclodextrin, or L-ascorbic acid was prepared. To each solution was added panose as a saccharide donor to give an equal concentration, admixed with 10 units/g substrate of a purified specimen of either α-isomaltosyl-transferring enzyme from Bacillus globisporus C9 obtained by the method in Experiment 4, Bacillus globisporus C11 obtained by the method in Experiment 7, Bacillus globisporus N75 obtained by the method in Experiment 11, or Arthrobacter ramosus S1 obtained by the method in Experiment 15, or a partially purified specimen of α-isomaltosyl-transferring enzyme from Arthrobacter globiformis A19 obtained by the method in Experiment 18, followed by adjusting the saccharide concentration to 3.2% (w/v). The mixtures thus obtained were enzymatically reacted at 30° C. and Ph 6.0 for 24 hours. The saccharide composition of the resulting reaction mixtures were analyzed on gas chromatography (abbreviated as “GLC” hereinafter) for monosaccharides and disaccharides as testing saccharides, and on HPLC for tri- or higher-saccharides as testing saccharides to confirm whether these saccharides can be used as transferring acceptors for the above enzymes with an index of the positive or negative formation of a saccharide transferred product. In performing GLC, the following apparatuses and conditions were used: GLC apparatus, “GC-16A” commercialized by Shimadzu Corporation, Tokyo, Japan; column, a stainless-steel column, 3 mm in diameter and 2 m in length, packed with 2% “SILICONE OV-17/[…]”, commercialized by GL Sciences Inc., Tokyo, Japan; carrier gas, nitrogen gas at a flow rate of 40 ml/min under temperature conditions of increasing from 160° C. to 320° C. at an increasing temperature rate of 7.5° C./min; and detection, a hydrogen flame ionization detector. In the case of HPLC analysis, the apparatuses and conditions used were: HPLC apparatus, “CCPD” commercialized by Tosoh Corporation, Tokyo, Japan; column, “ODS-AQ-303” commercialized by YMC Co., Ltd., Tokyo, Japan; eluent, water at a flow rate of 0.5 ml/min; and detection, a differential refractometer.

[2] = tested on: α-isomaltosyl-transferring enzyme from Arthrobacter ramosus S1; conditions: panose as saccharide donor, 10 units/g substrate, 3.2% (w/v), 30° C., pH 6.0, 24 hours
Description: as §1

[3] = tested on: α-isomaltosyl-transferring enzyme from Bacillus globisporus C9; conditions: panose as saccharide donor, 10 units/g substrate, 3.2% (w/v), 30° C., pH 6.0, 24 hours
Description: as §1

[4] = tested on: α-isomaltosyl-transferring enzyme from Arthrobacter globiformis A19; conditions: partially purified enzyme, panose as saccharide donor, 10 units/g substrate, 3.2% (w/v), 30° C., pH 6.0, 24 hours
Description: as §1

[5] = tested on: α-isomaltosyl-transferring enzyme from Bacillus globisporus C11; conditions: panose as saccharide donor, 10 units/g substrate, 3.2% (w/v), 30° C., pH 6.0, 24 hours
Description: as §1

| Compound | Product of transferring reaction, Enzyme of Strain N75 [1] | Product of transferring reaction, Enzyme of Strain S1 [2] | Product of transferring reaction, Enzyme of Strain C9 [3] | Product of transferring reaction, Enzyme of Stain A19 [4] | Product of transferring reaction, Enzyme of Strain C11 [5] |
| --- | --- | --- | --- | --- | --- |
| CO[C@@H]1O[C@H](CO)[C@@H](O)[C@H](O)[C@H]1O [Methyl-β-glucoside, methyl-β-glucoside] | ++ (a saccharide-transferred product was formed in an amount of over 10% to the total sugars) | + (a saccharide-transferred product was formed in an amount of over one percent but below 10% to the total sugars) | ++ (a saccharide-transferred product was formed in an amount of over 10% to the total sugars) | + (a saccharide-transferred product was formed in an amount of over one percent but below 10% to the total sugars) | ++ (a saccharide-transferred product was formed in an amount of over 10% to the total sugars) |
| O=C[C@@H](O)[C@H](O)[C@H](O)CO [D-Arabinose, D-arabinose] | ± (a saccharide-transferred product formed in an amount of less than one percent to the total sugars) | + (a saccharide-transferred product was formed in an amount of over one percent but below 10% to the total sugars) | ± (a saccharide-transferred product formed in an amount of less than one percent to the total sugars) | ± (a saccharide-transferred product formed in an amount of less than one percent to the total sugars) | ± (a saccharide-transferred product formed in an amount of less than one percent to the total sugars) |
| O=C[C@H](O)[C@@H](O)[C@H](O)[C@H](O)CO [D-Glucose, D-glucose] | ++ (a saccharide-transferred product was formed in an amount of over 10% to the total sugars) | ++ (a saccharide-transferred product was formed in an amount of over 10% to the total sugars) | ++ (a saccharide-transferred product was formed in an amount of over 10% to the total sugars) | ++ (a saccharide-transferred product was formed in an amount of over 10% to the total sugars) | ++ (a saccharide-transferred product was formed in an amount of over 10% to the total sugars) |
| O=C[C@H](O)[C@H](O)[C@H](O)CO [D-Ribose, D-ribose] | − | + (a saccharide-transferred product was formed in an amount of over one percent but below 10% to the total sugars) | − | ± (a saccharide-transferred product formed in an amount of less than one percent to the total sugars) | − |
| O=C(CO)[C@H](O)[C@H](O)[C@H](O)CO [D-Psicose, D-psicose] | − | ± (a saccharide-transferred product formed in an amount of less than one percent to the total sugars) | − | ± (a saccharide-transferred product formed in an amount of less than one percent to the total sugars) | − |
| CO[C@H]1O[C@H](CO)[C@@H](O)[C@H](O)[C@H]1O [Methyl-α-glucoside, methyl-α-glucoside] | ++ (a saccharide-transferred product was formed in an amount of over 10% to the total sugars) | ++ (a saccharide-transferred product was formed in an amount of over 10% to the total sugars) | ++ (a saccharide-transferred product was formed in an amount of over 10% to the total sugars) | ++ (a saccharide-transferred product was formed in an amount of over 10% to the total sugars) | ++ (a saccharide-transferred product was formed in an amount of over 10% to the total sugars) |
| isomaltosylglucoside | ++ (a saccharide-transferred product was formed in an amount of over 10% to the total sugars) | ++ (a saccharide-transferred product was formed in an amount of over 10% to the total sugars) | ++ (a saccharide-transferred product was formed in an amount of over 10% to the total sugars) | ++ (a saccharide-transferred product was formed in an amount of over 10% to the total sugars) | ++ (a saccharide-transferred product was formed in an amount of over 10% to the total sugars) |
| O=C[C@H](O)[C@@H](O)[C@H](O)CO [D-Xylose, D-xylose] | ++ (a saccharide-transferred product was formed in an amount of over 10% to the total sugars) | ++ (a saccharide-transferred product was formed in an amount of over 10% to the total sugars) | ++ (a saccharide-transferred product was formed in an amount of over 10% to the total sugars) | ++ (a saccharide-transferred product was formed in an amount of over 10% to the total sugars) | ++ (a saccharide-transferred product was formed in an amount of over 10% to the total sugars) |
| OC[C@@H](O)[C@H](O)[C@@H](O)CO [Xylitol, xylitol] | − | ± (a saccharide-transferred product formed in an amount of less than one percent to the total sugars) | − | ± (a saccharide-transferred product formed in an amount of less than one percent to the total sugars) | − |
| OC[C@@H](O)C(O)[C@H](O)CO [Arabitol, arabitol] | − | ± (a saccharide-transferred product formed in an amount of less than one percent to the total sugars) | − | − | − |
| O=C[C@@H](O)[C@H](O)[C@@H](O)CO [L-Xylose, L-xylose] | ++ (a saccharide-transferred product was formed in an amount of over 10% to the total sugars) | ++ (a saccharide-transferred product was formed in an amount of over 10% to the total sugars) | ++ (a saccharide-transferred product was formed in an amount of over 10% to the total sugars) | ++ (a saccharide-transferred product was formed in an amount of over 10% to the total sugars) | ++ (a saccharide-transferred product was formed in an amount of over 10% to the total sugars) |
